Details of data set [1]: method as in PMID 20188808. The settings on record: 400 μm needle length, cited from earlier work.
The conditions of data set [2]: cited from earlier work; for logP / water solubility: no reference given.
For data set [3] the following is noted: cited from earlier work.
On the set-up of data set [4]: method as in PMID 24333401. The settings on record: nanostructured lipid carrier; cited from earlier work.
For data set [5] the following is noted: mean ± SD, n = 6; for Microneedle cumulative amount after 12 h (Qs): skin treated with 500 μm microneedle roller.
Method: Frozen porcine ears were obtained from Animal Technologies, Tyler, TX, USA. Skin pieces were thawed at ambient temperatures and carefully shaved using an electric clipper (Wahl, Sterling, IL, USA). Full thickness skin was prepared by removing the subcutaneous fat from the underlying cartilage. The average thickness of the skin membrane was measured with a Digimatic Micrometer (Mitutoyo, Tokyo, Japan). Skin samples were maintained at −20 °C for storage. Prior to experiments, the skin samples were thawed at room temperature before use.
In vitro permeation experiments were conducted using a six-celled, static, vertical Franz diffusion cell system (PermeGear, Hellertown, PA, USA). Each cell contained a top donor compartment and a lower receptor compartment with a magnetic stirrer, sampling port, and water jacket maintained at 37 °C to simulate normal body temperature by Thermo Haake DC10-P5/U heating circulator bath (ThermoFisher Scientific, Waltham, MA, USA). The receptor compartment diffusion area was 1.77 cm^2 with a volume capacity of 12 mL filled with PBS. Skin samples obtained from different pigs were placed between the upper donor chamber and lower receiver chamber of the vertical Franz diffusion cells, which were sealed using high-vacuum grease (Dow Corning, Midland, MA, USA) and a metal clamp. Solid microneedle rollers were used to created microchannels in porcine skin. Full thickness microneedle-treated porcine skins were mounted on three-receptor compartments and untreated porcine skins were placed on the remaining three-receptor compartments to serve as controls, and diffusion experiments for the two drugs were replicated six times (n = 6). The microneedle roller was applied fifteen times to each skin sample to increase the number of microconduits for enhanced transdermal drug delivery. […] The sampling ports were also covered with parafilm to further reduce evaporation. […] Receptor chambers were replenished with an equal volume of fresh, pre-warmed PBS maintained at 37 °C. All samples were stored at 4 °C until analysis by LC–MS. The cumulative amount of each drug permeating the excised full thickness porcine skin was plotted as a function of time. The slope and intercept of the linear portion were derived by linear regression analysis. Steady state flux was calculated from the linear portion of the cumulative amount versus time curve.
Chromatographic separation was carried out on the reverse-phase Agilent Zorbax Eclipse Plus C18 (100 mm × 2.1 mm, 3.5 microns) analytical column, which was protected by a guard column with the same stationary phase (12.5 mm × 4.6 mm, 5 microns) (Agilent Technologies, Palo Alto, CA, USA). The column temperature was set at 40 °C, and the autosampler temperature was set at 4 °C. The mobile phase consisted of 0.1% formic acid in water (solvent A), and 0.1% formic acid in methanol (solvent B). […] A post-run time of 2 min for mobile phase equilibration was used after each sample run. Calibration curve standards were freshly prepared in PBS buffer solution. The MS data were collected in positive electro spray ionization tandem mass spectrometry (ESI MS/MS) mode. Nebulizer temperature was 350 °C, nebulizer pressure was 50 psi, and the drying gas flow rate was 10.0 L/min. Compounds were quantified in positive ESI MS/MS mode by quantifying the specific product ion.
Flux values were calculated using the steady-state portion of the cumulative amount versus time curves. Six replicates were used for the study.

We go through four molecules from PMC4695825 (Pharmaceutics, 2015).

Counter-ions that a name gives are not always drawn. Like-named read-outs stand apart in the source and are kept apart here.

For `Nc1nc2c(ncn2COCCO)c(=O)[nH]1` [acyclovir], the “Flux enhancement after microneedle array pretreatment” value is on record as “significant enhancement” in data set [1] (2000 needles/cm^2) and “lower enhancement” in data set [1] (5625 needle/cm^2).

As to `NC12CC3CC(CC(C3)C1)C2` [amantadine hydrochloride, Amantadine hydrochloride], in data set [2], the partition coefficient is recorded as 2.44, the log partition coefficient (logP) is recorded as 2.4 and the water solubility is 50 mg/mL. Further, in data set [3], the pharmacokinetic half-life is given as 10 h.

On to `Cc1cc2c(s1)Nc1ccccc1N=C2N1CCN(C)CC1` [olanzapine], for which the “Change in transdermal permeation rate after microneedle device pretreatment” value in data set [4] is on record as “slight but not statistically significant increase”.

In turn, `CCCN[C@H]1CCc2nc(N)sc2C1` [pramipexole dihydrochloride] came in with a Microneedle-facilitated transdermal flux in data set [5] (full thickness porcine ear skin treated with 500 μm stainless steel microneedle roller, 37 °C, donor amantadine ~50 mg/mL or pramipexole ~1 mg/mL, steady state) of 134.04 ± 0.98 μg/cm^2/h. Also, the “Microneedle cumulative amount after 12 h (Qs)” value in data set [5] (12 h, listed as Pramipexole) stood at 1583.43 ± 72.99 μg/cm^2; in data set [5] (12 h, listed as pramipexole) it was 1583.43 μg/cm^2. The “Passive (control) transdermal flux” value in data set [5] (untreated full thickness porcine ear skin, 37 °C, donor amantadine ~50 mg/mL or pramipexole ~1 mg/mL, steady state) was 134.83 ± 13.66 μg/cm^2/h. For the same molecule, the “Passive (control) cumulative amount after 12 h (Qs)” value in data set [5] (untreated full thickness porcine ear skin, 12 h) was found to be 1607.86 ± 35.77 μg/cm^2. For the same molecule, the logP in data set [2] is listed as 1.2. For the same molecule, the water solubility in data set [2] is on record as greater than 20 mg/mL. For the same molecule, the “octanolphosphate buffer partition coefficient” value in data set [2] (pH 7.4) is listed as 0.135. In addition, the pharmacokinetic half-life in data set [3] was 6 to 8 h.

As a reminder, the logP is the decadic logarithm of the partition coefficient of the neutral form, usually between octanol and water.
